In brackets after ≈: the same amount, converted by molar mass.
How the values were obtained:
Type in all cases: functional
Bacillus subtilis = test: Antimicrobial activity against Bacillus subtilis CGMCC1.1162 after 24 hrs by twofold serial microdilution method; conditions: CGMCC1.1162, 24 h
Escherichia coli = test: Antimicrobial activity against Escherichia coli CGMCC1.1571 after 24 hrs by twofold serial microdilution method; conditions: CGMCC1.1571, 24 h
Staphylococcus aureus = test: Antimicrobial activity against Staphylococcus aureus CGMCC1.1361 after 24 hrs by twofold serial microdilution method; conditions: CGMCC1.1361, 24 h
Pseudomonas fluorescens = test: Antimicrobial activity against Pseudomonas fluorescens CGMCC1.1828 after 24 hrs by twofold serial microdilution method; conditions: CGMCC1.1828, 24 h
Candida albicans = test: Antimicrobial activity against Candida albicans CGMCC2.2086 after 48 hrs by twofold serial microdilution method; conditions: CGMCC2.2086, 48 h
Candida tropicalis = test: Antimicrobial activity against Candida tropicalis CGMCC2.3967 after 48 hrs by twofold serial microdilution method; conditions: CGMCC2.3967, 48 h
Aspergillus niger = test: Antimicrobial activity against Aspergillus niger CGMCC3.316 after 48 hrs by twofold serial microdilution method; conditions: CGMCC3.316, 48 h

| SMILES | MIC (Bacillus subtilis) | MIC (Escherichia coli) | MIC (Staphylococcus aureus) | MIC (Pseudomonas fluorescens) | MIC (Candida albicans) | MIC (Candida tropicalis) | MIC (Aspergillus niger) |
| --- | --- | --- | --- | --- | --- | --- | --- |
| COC(=O)[C@]1(C)CCC[C@]2(C)c3ccc(C(C)C)cc3-c3c(c4ccccc4n3CCNc3ccc([N+](=O)[O-])cc3)[C@@H]12 | 15.6 mg/L (≈ 27.6 µM) | 31.2 mg/L (≈ 55.2 µM) | 7.8 mg/L (≈ 13.8 µM) | 15.6 mg/L (≈ 27.6 µM) | 31.2 mg/L (≈ 55.2 µM) | 62.5 mg/L (≈ 110 µM) | > 100 mg/L |
| COC(=O)[C@]1(C)CCC[C@]2(C)c3ccc(C(C)C)cc3-c3c(c4ccccc4n3CCn3c([N+](=O)[O-])cnc3C)[C@@H]12 | 0.9 mg/L (≈ 1.62 µM) | 7.8 mg/L (≈ 14.1 µM) | 1.9 mg/L (≈ 3.43 µM) | 7.8 mg/L (≈ 14.1 µM) | 31.2 mg/L (≈ 56.2 µM) | 31.2 mg/L (≈ 56.2 µM) | > 100 mg/L |
| COC(=O)[C@]1(C)CCC[C@]2(C)c3ccc(C(C)C)cc3-c3c(c4ccccc4n3CCn3cnnn3)[C@@H]12 | 7.8 mg/L (≈ 15.7 µM) | 31.2 mg/L (≈ 62.7 µM) | 31.2 mg/L (≈ 62.7 µM) | 15.6 mg/L (≈ 31.3 µM) | 31.2 mg/L (≈ 62.7 µM) | 62.5 mg/L (≈ 126 µM) | > 100 mg/L |
| CCN(CC)CCn1c2c(c3ccccc31)[C@H]1[C@](C)(C(=O)OC)CCC[C@]1(C)c1ccc(C(C)C)cc1-2 | 31.2 mg/L (≈ 62.3 µM) | > 100 mg/L | 62.5 mg/L (≈ 125 µM) | 62.5 mg/L (≈ 125 µM) | 62.5 mg/L (≈ 125 µM) | > 100 mg/L | > 100 mg/L |
| COC(=O)[C@]1(C)CCC[C@]2(C)c3ccc(C(C)C)cc3-c3c(c4ccccc4n3CCNc3ccc(Cl)cc3)[C@@H]12 | 31.2 mg/L (≈ 56.2 µM) | > 100 mg/L | 31.2 mg/L (≈ 56.2 µM) | 62.5 mg/L (≈ 113 µM) | 62.5 mg/L (≈ 113 µM) | > 100 mg/L | > 100 mg/L |
| COC(=O)[C@]1(C)CCC[C@]2(C)c3ccc(C(C)C)cc3-c3c(c4ccccc4n3CCn3ncnn3)[C@@H]12 | 31.2 mg/L (≈ 62.7 µM) | 62.5 mg/L (≈ 126 µM) | 31.2 mg/L (≈ 62.7 µM) | 62.5 mg/L (≈ 126 µM) | > 100 mg/L | > 100 mg/L | > 100 mg/L |
| COC(=O)[C@]1(C)CCC[C@]2(C)c3ccc(C(C)C)cc3-c3c(c4ccccc4n3CCn3ccnn3)[C@@H]12 | 7.8 mg/L (≈ 15.7 µM) | 15.6 mg/L (≈ 31.4 µM) | 31.2 mg/L (≈ 62.8 µM) | 31.2 mg/L (≈ 62.8 µM) | > 100 mg/L | > 100 mg/L | > 100 mg/L |
| COC(=O)[C@]1(C)CCC[C@]2(C)c3ccc(C(C)C)cc3-c3c(c4ccccc4n3CCN3CCCC3)[C@@H]12 | 31.2 mg/L (≈ 62.6 µM) | > 100 mg/L | 62.5 mg/L (≈ 125 µM) | > 100 mg/L | > 100 mg/L | > 100 mg/L | > 100 mg/L |
| COC(=O)[C@]1(C)CCC[C@]2(C)c3ccc(C(C)C)cc3-c3c(c4ccccc4n3CCN3CCOCC3)[C@@H]12 | 15.6 mg/L (≈ 30.3 µM) | 31.2 mg/L (≈ 60.6 µM) | 7.8 mg/L (≈ 15.2 µM) | 31.2 mg/L (≈ 60.6 µM) | 62.5 mg/L (≈ 121 µM) | 31.2 mg/L (≈ 60.6 µM) | 62.5 mg/L (≈ 121 µM) |
| CCCCN(CCCC)CCn1c2c(c3ccccc31)[C@H]1[C@](C)(C(=O)OC)CCC[C@]1(C)c1ccc(C(C)C)cc1-2 | 15.6 mg/L (≈ 28 µM) | 31.2 mg/L (≈ 56 µM) | 15.6 mg/L (≈ 28 µM) | 15.6 mg/L (≈ 28 µM) | 31.2 mg/L (≈ 56 µM) | 31.2 mg/L (≈ 56 µM) | 62.5 mg/L (≈ 112 µM) |
| COC(=O)[C@]1(C)CCC[C@]2(C)c3ccc(C(C)C)cc3-c3c(c4ccccc4n3CCN3CCN(C)CC3)[C@@H]12 | 3.9 mg/L (≈ 7.39 µM) | 15.6 mg/L (≈ 29.6 µM) | 1.9 mg/L (≈ 3.6 µM) | 7.8 mg/L (≈ 14.8 µM) | 7.8 mg/L (≈ 14.8 µM) | 7.8 mg/L (≈ 14.8 µM) | 7.8 mg/L (≈ 14.8 µM) |
| COC(=O)[C@]1(C)CCC[C@]2(C)c3ccc(C(C)C)cc3-c3c(c4ccccc4n3CCBr)[C@@H]12 | 31.2 mg/L (≈ 61.4 µM) | > 100 mg/L | 62.5 mg/L (≈ 123 µM) | > 100 mg/L | > 100 mg/L | > 100 mg/L | > 100 mg/L |
| COC(=O)[C@]1(C)CCC[C@]2(C)c3ccc(C(C)C)cc3-c3c(c4ccccc4n3CCNc3ccc(Br)cc3)[C@@H]12 | 31.2 mg/L (≈ 52 µM) | > 100 mg/L | 62.5 mg/L (≈ 104 µM) | > 100 mg/L | > 100 mg/L | > 100 mg/L | > 100 mg/L |
| COC(=O)[C@]1(C)CCC[C@]2(C)c3ccc(C(C)C)cc3-c3c(c4ccccc4n3CCNc3ccc(OC)cc3)[C@@H]12 | > 100 mg/L | > 100 mg/L | 62.5 mg/L (≈ 113 µM) | > 100 mg/L | > 100 mg/L | > 100 mg/L | > 100 mg/L |
| COC(=O)[C@]1(C)CCC[C@]2(C)c3ccc(C(C)C)cc3-c3c(c4ccccc4n3CCN(C)C)[C@@H]12 | 62.5 mg/L (≈ 132 µM) | > 100 mg/L | > 100 mg/L | 62.5 mg/L (≈ 132 µM) | > 100 mg/L | > 100 mg/L | > 100 mg/L |
| COC(=O)[C@]1(C)CCC[C@]2(C)c3ccc(C(C)C)cc3-c3c(c4ccccc4n3CCN3CCCCC3)[C@@H]12 | 15.6 mg/L (≈ 30.4 µM) | > 100 mg/L | 62.5 mg/L (≈ 122 µM) | 62.5 mg/L (≈ 122 µM) | > 100 mg/L | 62.5 mg/L (≈ 122 µM) | > 100 mg/L |
| COC(=O)[C@]1(C)CCC[C@]2(C)c3ccc(C(C)C)cc3-c3c(c4ccccc4n3CCN3CCNCC3)[C@@H]12 | 7.8 mg/L (≈ 15.2 µM) | 15.6 mg/L (≈ 30.4 µM) | 15.6 mg/L (≈ 30.4 µM) | 15.6 mg/L (≈ 30.4 µM) | 31.2 mg/L (≈ 60.7 µM) | 31.2 mg/L (≈ 60.7 µM) | 62.5 mg/L (≈ 122 µM) |
| COC(=O)[C@]1(C)CCC[C@]2(C)c3ccc(C(C)C)cc3-c3c(c4ccccc4n3CCn3cnc4ccccc43)[C@@H]12 | 31.2 mg/L (≈ 57.2 µM) | 31.2 mg/L (≈ 57.2 µM) | 31.2 mg/L (≈ 57.2 µM) | 31.2 mg/L (≈ 57.2 µM) | 31.2 mg/L (≈ 57.2 µM) | 62.5 mg/L (≈ 115 µM) | > 100 mg/L |
| COC(=O)[C@]1(C)CCC[C@]2(C)c3ccc(C(C)C)cc3-c3c(c4ccccc4n3CCn3ccnc3)[C@@H]12 | 31.2 mg/L (≈ 62.9 µM) | 62.5 mg/L (≈ 126 µM) | 15.6 mg/L (≈ 31.5 µM) | > 100 mg/L | 62.5 mg/L (≈ 126 µM) | > 100 mg/L | > 100 mg/L |
| NCC[C@H](O)C(=O)N[C@@H]1C[C@H](N)[C@@H](O[C@H]2O[C@H](CN)[C@@H](O)[C@H](O)[C@H]2O)[C@H](O)[C@H]1O[C@H]1O[C@H](CO)[C@@H](O)[C@H](N)[C@H]1O.O=S(=O)(O)O | 0.9 mg/L | 1.9 mg/L | 0.9 mg/L | 0.9 mg/L | – | – | – |
| COC(=O)[C@]1(C)CCC[C@]2(C)c3ccc(C(C)C)cc3-c3c(c4ccccc4n3CCN(CCO)CCO)[C@@H]12 | 62.5 mg/L (≈ 117 µM) | 62.5 mg/L (≈ 117 µM) | > 100 mg/L | 62.5 mg/L (≈ 117 µM) | 62.5 mg/L (≈ 117 µM) | 31.2 mg/L (≈ 58.6 µM) | > 100 mg/L |
| CCCN(CCC)CCn1c2c(c3ccccc31)[C@H]1[C@](C)(C(=O)OC)CCC[C@]1(C)c1ccc(C(C)C)cc1-2 | 15.6 mg/L (≈ 29.5 µM) | 31.2 mg/L (≈ 59 µM) | 31.2 mg/L (≈ 59 µM) | 31.2 mg/L (≈ 59 µM) | 31.2 mg/L (≈ 59 µM) | 62.5 mg/L (≈ 118 µM) | > 100 mg/L |
| COC(=O)[C@]1(C)CCC[C@]2(C)c3ccc(C(C)C)cc3-c3c(c4ccccc4n3CCNc3ccc(C)cc3)[C@@H]12 | 62.5 mg/L (≈ 117 µM) | > 100 mg/L | > 100 mg/L | > 100 mg/L | > 100 mg/L | > 100 mg/L | > 100 mg/L |
| COC(=O)[C@]1(C)CCC[C@]2(C)c3ccc(C(C)C)cc3C(=O)C[C@@H]12 | 31.2 mg/L (≈ 95 µM) | > 100 mg/L | 31.2 mg/L (≈ 95 µM) | 62.5 mg/L (≈ 190 µM) | > 100 mg/L | > 100 mg/L | > 100 mg/L |
| CC(=O)N1CCN(c2ccc(OCC3COC(Cn4ccnc4)(c4ccc(Cl)cc4Cl)O3)cc2)CC1 (racemic) [KETOCONAZOLE] | – | – | – | – | 3.9 mg/L (≈ 7.34 µM) | 3.9 mg/L (≈ 7.34 µM) | 7.8 mg/L (≈ 14.7 µM) |

— ChEMBL document CHEMBL3098094, “Synthesis and biological evaluation of novel N-substituted 1H-dibenzo[a,c]carbazole derivatives of dehydroabietic acid as potential antimicrobial agents” (2014)
